The values that follow come from paper PMC4300089, “Structure-Guided Design of Selective Epac1 and Epac2 Agonists” (PLoS Biology, 2015).

Molecules are shown by their SMILES.

Assay [1] concerns the target T1, PKA-Iβ (Homo sapiens, UniProt P31321).
T1 construct: made in house
The assay can be described thus: PKA activity assay, PKA-Iβ. The assay is classed as biochemical. Conditions: for EC50: read-out: Kact; for A (PKA activity): PKAIβ. As for the experimental part: (§1) The recombinant human PKA catalytic subunit (Cα1) and the four human PKA regulatory subunits (RIα, RIβ, RIIα, RIIβ) were expressed, purified, and characterized as described. […] PKA holoenzymes were formed by mixing the R- and C-subunit at a molar ratio of 1.2:1 and extensive dialysis against 20 mM MOPS (pH 7.0), 150 mM NaCl, 2.5 mM β-mercaptoethanol, supplemented with 1 mM ATP and 10 mM MgCl2 for PKA-I at 4°C overnight. PKA holoenzymes were used at about 20 nM for the activation assay. The apparent activation constants (Kact) were determined by fitting the concentration-dependent activity to a sigmoid dose-response model.

In assay [2] the target is T2, PKA-Iα (Homo sapiens, UniProt P10644).
T2 construct: made in house
T2 sequence (P10644 whole entry): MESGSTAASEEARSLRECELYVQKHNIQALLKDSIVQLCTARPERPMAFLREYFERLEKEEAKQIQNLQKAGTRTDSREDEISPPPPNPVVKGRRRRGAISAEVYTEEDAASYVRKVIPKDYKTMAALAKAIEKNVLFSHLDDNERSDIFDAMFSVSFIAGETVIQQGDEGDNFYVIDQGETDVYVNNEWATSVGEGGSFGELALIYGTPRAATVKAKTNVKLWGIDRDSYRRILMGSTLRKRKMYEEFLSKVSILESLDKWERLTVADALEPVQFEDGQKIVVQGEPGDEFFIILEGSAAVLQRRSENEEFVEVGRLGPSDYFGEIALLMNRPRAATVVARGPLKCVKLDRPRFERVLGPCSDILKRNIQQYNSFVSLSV
The assay can be described thus: PKA activity assay (coupled spectrophotometric, Kemptide), PKA-Iα. Conditions: for EC50: read-out: Kact; for A (PKA activity): PKAIα. The assay is classed as biochemical. As for the experimental part:
as §1

In assay [3] the target is T3, Epac1 (Homo sapiens, UniProt O95398).
T3 construct: pBabe-Flag-Epac1 (Epac1, homo sapiens, amino acids 1–881); expressed in transfected cells; host or cells: U2OS
T3 sequence (O95398 1-881 isoform O95398-3): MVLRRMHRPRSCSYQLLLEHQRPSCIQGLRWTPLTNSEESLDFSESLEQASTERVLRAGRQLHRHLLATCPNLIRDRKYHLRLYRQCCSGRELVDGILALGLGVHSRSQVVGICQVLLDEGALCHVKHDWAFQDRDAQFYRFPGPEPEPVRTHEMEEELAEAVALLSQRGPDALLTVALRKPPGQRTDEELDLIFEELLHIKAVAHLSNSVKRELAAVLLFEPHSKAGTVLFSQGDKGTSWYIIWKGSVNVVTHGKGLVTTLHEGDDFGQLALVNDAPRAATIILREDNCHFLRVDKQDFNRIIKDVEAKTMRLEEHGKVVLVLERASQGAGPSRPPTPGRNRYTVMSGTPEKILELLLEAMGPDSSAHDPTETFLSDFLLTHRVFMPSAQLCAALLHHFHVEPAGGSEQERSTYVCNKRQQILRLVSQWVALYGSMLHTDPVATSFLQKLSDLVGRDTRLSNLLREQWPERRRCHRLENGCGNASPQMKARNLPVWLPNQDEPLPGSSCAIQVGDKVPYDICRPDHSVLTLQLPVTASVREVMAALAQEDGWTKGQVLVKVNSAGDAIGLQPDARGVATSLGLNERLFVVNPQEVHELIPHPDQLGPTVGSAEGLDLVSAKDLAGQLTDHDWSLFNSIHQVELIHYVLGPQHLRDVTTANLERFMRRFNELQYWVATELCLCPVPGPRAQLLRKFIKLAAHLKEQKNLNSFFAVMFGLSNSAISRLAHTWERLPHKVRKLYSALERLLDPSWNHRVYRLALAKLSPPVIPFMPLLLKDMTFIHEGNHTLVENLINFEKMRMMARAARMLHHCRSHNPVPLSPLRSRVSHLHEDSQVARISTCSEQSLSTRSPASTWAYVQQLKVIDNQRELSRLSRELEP
Description: Cellular Epac activity: Rap•GTP levels in U2OS cells stably expressing Epac1. The assay is classed as cell-based. Conditions: for rel. RapGTP: relative to induction with forskolin and IBMX, Fig. 6C. As for the experimental part:
Rap•GTP levels were determined by precipitating GTP-bound Rap specifically from cell lysates and subsequent western Blotting with an α-Rap antibody (Santa Cruz Biotechnology). To generate stable cell lines, U2OS cells were transfected with pBabe-Flag-Epac1 (Epac1, homo sapiens, amino acids 1–881) or pBabe-Flag-Epac2 (Epac2, mus musculus, amino acids 1–993), selected for Epac expression and maintained under selection with 2 mg/l puromycin. The cells were cultured according to standard protocols. The activity of PKA was determined by western blotting with a monoclonal α-VASP antibody (BD Transduction Laboratories). Blots were developed by enhanced chemiluminescence (ECL) and the use of X-ray films; for quantification films were scanned. The intensities of the Rap•GTP bands and the upper band of VASP (P-VASP) were determined for each condition in ImageJ and normalized to the stimulation with forskolin and IBMX for each blot.

The target of assay [4] is T4, Epac1 (Homo sapiens, UniProt O95398).
T4 construct: made in house
T4 sequence (O95398 150-881 isoform O95398-3): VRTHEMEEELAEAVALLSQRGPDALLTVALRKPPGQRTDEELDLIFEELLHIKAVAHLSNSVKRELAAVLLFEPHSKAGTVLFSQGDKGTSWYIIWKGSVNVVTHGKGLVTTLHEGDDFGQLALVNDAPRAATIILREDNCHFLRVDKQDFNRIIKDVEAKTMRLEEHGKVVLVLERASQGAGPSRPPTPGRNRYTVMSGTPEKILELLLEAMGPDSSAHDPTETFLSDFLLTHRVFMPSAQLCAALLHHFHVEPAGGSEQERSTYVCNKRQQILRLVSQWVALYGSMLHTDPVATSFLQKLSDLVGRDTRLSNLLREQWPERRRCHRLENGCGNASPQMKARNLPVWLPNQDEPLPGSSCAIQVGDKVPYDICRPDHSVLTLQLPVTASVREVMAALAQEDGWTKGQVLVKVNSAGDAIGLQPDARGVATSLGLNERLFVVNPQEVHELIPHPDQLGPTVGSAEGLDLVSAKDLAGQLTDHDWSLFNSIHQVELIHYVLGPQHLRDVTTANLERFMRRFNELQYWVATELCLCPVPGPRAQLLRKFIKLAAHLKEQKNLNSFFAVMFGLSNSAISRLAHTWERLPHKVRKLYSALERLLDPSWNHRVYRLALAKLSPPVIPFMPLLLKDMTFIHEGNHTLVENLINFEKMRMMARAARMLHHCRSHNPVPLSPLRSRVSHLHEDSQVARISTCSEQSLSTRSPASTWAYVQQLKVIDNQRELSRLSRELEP
Set-up: method as in PMID 12888551. Conditions: footnote c, see also ref 13; cited from earlier work.

T1 sequence (P31321 whole entry): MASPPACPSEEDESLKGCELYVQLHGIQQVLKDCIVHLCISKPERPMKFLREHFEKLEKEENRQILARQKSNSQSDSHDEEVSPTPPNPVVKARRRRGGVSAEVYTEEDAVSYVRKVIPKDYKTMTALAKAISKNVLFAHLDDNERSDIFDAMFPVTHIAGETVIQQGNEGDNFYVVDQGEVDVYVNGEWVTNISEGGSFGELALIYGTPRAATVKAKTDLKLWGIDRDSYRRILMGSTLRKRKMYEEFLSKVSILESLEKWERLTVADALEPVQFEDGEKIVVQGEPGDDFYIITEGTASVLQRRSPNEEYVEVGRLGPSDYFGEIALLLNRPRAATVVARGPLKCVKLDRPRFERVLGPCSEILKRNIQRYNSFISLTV

Usually AC50 stands for the concentration at which the activity in the assay is half-maximal. As for `COC1C2OP(=O)(O)OCC2OC1n1c(Sc2ccc(Cl)cc2)nc2c(N)ncnc21` [D-007, 8-pCPT-2′-O-Me-cAMP, reference compound], the EC50 in assay [1] (PKA-Iβ) was found to be 18000 nM; in assay [2] (PKA-Iα), 14000 nM. Moreover, the “A (PKA activity)” value worked out at 5.38 U/mg in assay [1] (concentration 1 μM); 9.18 U/mg in assay [1] (concentration 1.00E+01 μM); 1.84E+01 U/mg in assay [1] (concentration 1.00E+03 μM); 5.43 U/mg in assay [1] (concentration 1.00E-01 μM); 4.7 U/mg in assay [1] (concentration 1.00E-03 μM); 4.53 U/mg in assay [1] (concentration 1.00E-05 μM). Moreover, the “A (PKA activity)” value is given as 1.31E+01 U/mg in assay [1] (concentration 2.50E+01 μM); 1.60E+01 U/mg in assay [1] (concentration 2.50E+02 μM); 1.79E+01 U/mg in assay [1] (concentration 2.50E+03 μM); 3.924 U/mg in assay [2] (concentration 1 μM); 1.06E+01 U/mg in assay [2] (concentration 1.00E+01 μM); 1.58E+01 U/mg in assay [2] (concentration 1.00E+02 μM). The “A (PKA activity)” value is listed as 3.7714 U/mg in assay [2] (concentration 1.00E-01 μM); 3.6515 U/mg in assay [2] (concentration 1.00E-03 μM); 2.6923 U/mg in assay [2] (concentration 1.00E-05 μM); 1.22E+01 U/mg in assay [2] (concentration 2.50E+01 μM); 1.83E+01 U/mg in assay [2] (concentration 2.50E+02 μM); 1.79E+01 U/mg in assay [2] (concentration 5.00E+02 μM). The “A (PKA activity)” value in assay [2] (concentration […]) amounted to 7.9352 U/mg. Moreover, the “activation of Epac1 in cells” value in assay [3] is “strongly activated”. The “rel. RapGTP” value in assay [3] turned out to be 1.65. Further, the AC50 in assay [4] is 1800 nM.

Regarding `Cc1ccc(CSc2nc3c(N)ncnc3n2[C@@H]2O[C@@H]3CO[P@](O)(=S)O[C@H]3[C@H]2O)cc1` [S-230, Sp-8-pMeBnT-cAMPS], the “A (PKA activity)” value in assay [1] (concentration 1.00E+01 μM) worked out at 2.81 U/mg; in assay [1] (concentration 1.00E-01 μM), 5.21 U/mg; in assay [1] (concentration 1.00E-03 μM), 4.71 U/mg; in assay [1] (concentration 1.00E-05 μM), 4.53 U/mg; in assay [1] (concentration 2.50E+02 μM) it was 3.19 U/mg; in assay [2] (concentration 1 μM), 2.9904 U/mg. In addition, the “A (PKA activity)” value in assay [2] (concentration 1.00E+01 μM) is on record as 1.9936 U/mg; in assay [2] (concentration 1.00E-01 μM) it was 3.8864 U/mg; in assay [2] (concentration 1.00E-02 μM), 2.632 U/mg; in assay [2] (concentration 1.00E-03 μM) it was 3.2928 U/mg; in assay [2] (concentration 1.00E-05 μM), 2.7664 U/mg; in assay [2] (concentration 5.00E+02 μM), 2.9232 U/mg.

`Nc1ncnc2c1nc(SCc1ccccc1)n2[C@@H]1O[C@@H]2CO[P@](O)(=S)O[C@H]2[C@H]1O` [S-220, Sp-8-BnT-cAMPS]: the “Kact compared to cAMP (times higher)” value in assay [1] (PKA-Iβ) and in assay [2] (PKA-Iα) was “three to eight times higher” each time. Moreover, the EC50 in assay [1] (PKA-Iβ) and in assay [2] (PKA-Iα) was 290 nM each time. Besides, the “A (PKA activity)” value in assay [1] (concentration 1 μM) is given as 2.04E+01 U/mg; in assay [1] (concentration 1.00E+01 μM), 2.34E+01 U/mg; in assay [1] (concentration 1.00E-01 μM), 7.7375 U/mg; in assay [1] (concentration 1.00E-02 μM) it was 4.3125 U/mg; in assay [1] (concentration 1.00E-03 μM) it was 4.35 U/mg; in assay [1] (concentration 1.00E-05 μM) it was 4.525 U/mg. Also, the “A (PKA activity)” value in assay [1] (concentration 1.70E-01 μM) was 1.11E+01 U/mg; in assay [1] (concentration 2.50E+02 μM), 2.32E+01 U/mg; in assay [1] (concentration 2.50E-01 μM) it was 1.38E+01 U/mg; in assay [1] (concentration 5.00E-01 μM), 1.59E+01 U/mg; in assay [2] (concentration 1 μM), 1.97E+01 U/mg; in assay [2] (concentration 1.00E+01 μM) it was 2.59E+01 U/mg. Besides, the “A (PKA activity)” value in assay [2] (concentration 1.00E-01 μM) came to 9.4227 U/mg; in assay [2] (concentration 1.00E-02 μM) it was 3.6309 U/mg; in assay [2] (concentration 1.00E-03 μM), 3.7632 U/mg; in assay [2] (concentration 1.00E-05 μM), 3.6309 U/mg; in assay [2] (concentration 2.50E+02 μM), 2.40E+01 U/mg; in assay [2] (concentration 2.50E-01 μM) it was 1.33E+01 U/mg. In assay [2] (concentration 5.00E+01 μM), the “A (PKA activity)” value turned out to be 2.52E+01 U/mg. The “activation of Epac1 in cells” value in assay [3] is on record as “only minor effects”. For the same compound, the “rel. RapGTP” value in assay [3] is recorded as 0.6097.

Consider `Nc1ncnc2c1nc(Sc1ccc(Cl)cc1)n2[C@@H]1O[C@@H]2COP(=O)(O)O[C@H]2[C@H]1O` [L-026, 8-pCPT-cAMP], for which the “rel. RapGTP” value in assay [3] was found to be 1.1255. The AC50 in assay [4] is 900 nM.

For the compound `Nc1ncnc2c1ncn2C1OC2COP(O)(=S)OC2C1O` (stereo not drawn) [S-000, Sp-cAMPS], in assay [4], the AC50 was 90000 nM and the Rel. kmax was 1.4^c.

In the case of `Nc1ncnc2c1ncn2[C@@H]1O[C@@H]2COP(=O)(O)O[C@H]2[C@H]1O` [cAMP, reference compound], the “A (PKA activity)” value in assay [1] (concentration 1 μM) stood at 2.35E+01 U/mg; in assay [1] (concentration 1.00E+01 μM), 2.37E+01 U/mg; in assay [1] (concentration 1.00E+02 μM), 2.44E+01 U/mg; in assay [1] (concentration 1.00E-01 μM), 2.23E+01 U/mg; in assay [1] (concentration 1.00E-02 μM) it was 7.2375 U/mg; in assay [1] (concentration 1.00E-03 μM), 2.9 U/mg. For the same compound, the “A (PKA activity)” value amounted to 4.525 U/mg in assay [1] (concentration 1.00E-05 μM); 1.08E+01 U/mg in assay [1] (concentration 2.50E-02 μM); 1.54E+01 U/mg in assay [1] (concentration 5.00E-02 μM); 2.37E+01 U/mg in assay [2] (concentration 1 μM); 2.34E+01 U/mg in assay [2] (concentration 1.00E+01 μM); 2.51E+01 U/mg in assay [2] (concentration 1.00E+02 μM). The “A (PKA activity)” value worked out at 1.43E+01 U/mg in assay [2] (concentration 1.00E-01 μM); 4.4268 U/mg in assay [2] (concentration 1.00E-02 μM); 1.4399 U/mg in assay [2] (concentration 1.00E-03 μM); 2.9393 U/mg in assay [2] (concentration 1.00E-05 μM); 1.93E+01 U/mg in assay [2] (concentration 2.50E-01 μM); 7.9492 U/mg in assay [2] (concentration 2.50E-02 μM). Also, in assay [2] (concentration 5.00E-02 μM), the “A (PKA activity)” value was determined as 9.6152 U/mg.
